Experimental data reported in ChEMBL document CHEMBL4004889, “Discovery of selective ATP-competitive eIF4A3 inhibitors” (Bioorg Med Chem, 2017).
pIC50, pKd, pKi: −log10 of the molar value.

Columns and labels:
[1] = target: T1, Eukaryotic initiation factor 4A-III (Homo sapiens, UniProt P38919); test: Inhibition of MLN51-induced full length recombinant human N-terminal His6/SUMO-tagged eIF4A3 RNA dependent ATPase activity expressed in Escherichia coli BL21(DE3) using 60 ug/ml single stranded poly(U) RNA as substrate after 30 mins by ADP-Glo luminescence assay
T1 sequence (P38919 whole entry): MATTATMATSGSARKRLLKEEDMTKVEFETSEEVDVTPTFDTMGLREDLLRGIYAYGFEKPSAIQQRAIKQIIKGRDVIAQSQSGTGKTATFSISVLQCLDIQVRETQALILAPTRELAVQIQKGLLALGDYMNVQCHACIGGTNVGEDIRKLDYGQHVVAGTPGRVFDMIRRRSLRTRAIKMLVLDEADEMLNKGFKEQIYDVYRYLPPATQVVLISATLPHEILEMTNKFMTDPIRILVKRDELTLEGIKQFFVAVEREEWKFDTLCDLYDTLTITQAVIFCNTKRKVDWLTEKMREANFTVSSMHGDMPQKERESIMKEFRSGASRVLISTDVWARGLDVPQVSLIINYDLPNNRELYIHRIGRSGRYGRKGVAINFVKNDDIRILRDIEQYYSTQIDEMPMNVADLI

[2] = target: Eukaryotic initiation factor 4A-I (Homo sapiens, UniProt P60842); test: Inhibition of eIF4G-induced full length recombinant human N-terminal His6/SUMO-tagged eIF4A1 RNA dependent ATPase activity expressed in Escherichia coli BL21(DE3) using single stranded poly(U) RNA as substrate after 40 mins by ADP-Glo luminescence assay
Chain of Eukaryotic initiation factor 4A-I (P60842 whole entry): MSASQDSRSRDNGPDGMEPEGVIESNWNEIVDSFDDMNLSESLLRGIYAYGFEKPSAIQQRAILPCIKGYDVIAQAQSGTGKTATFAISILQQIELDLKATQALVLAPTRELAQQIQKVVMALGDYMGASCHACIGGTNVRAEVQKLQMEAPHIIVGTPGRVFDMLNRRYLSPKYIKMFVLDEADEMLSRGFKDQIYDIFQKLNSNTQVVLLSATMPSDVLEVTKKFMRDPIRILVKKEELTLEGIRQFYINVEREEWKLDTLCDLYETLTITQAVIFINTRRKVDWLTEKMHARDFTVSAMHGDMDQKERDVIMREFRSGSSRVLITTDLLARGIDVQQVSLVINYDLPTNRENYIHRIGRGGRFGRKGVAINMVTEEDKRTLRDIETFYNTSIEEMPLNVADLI

[3] = target: U5 small nuclear ribonucleoprotein 200 kDa helicase (Homo sapiens, UniProt O75643); test: Inhibition of full length recombinant human N-terminal His-tagged BRR2 RNA dependent ATPase activity expressed in baculovirus infected Sf9 insect cells using single stranded poly(U) RNA as substrate after 30 mins by ADP-Glo luminescence assay
Chain of U5 small nuclear ribonucleoprotein 200 kDa helicase (O75643 whole entry): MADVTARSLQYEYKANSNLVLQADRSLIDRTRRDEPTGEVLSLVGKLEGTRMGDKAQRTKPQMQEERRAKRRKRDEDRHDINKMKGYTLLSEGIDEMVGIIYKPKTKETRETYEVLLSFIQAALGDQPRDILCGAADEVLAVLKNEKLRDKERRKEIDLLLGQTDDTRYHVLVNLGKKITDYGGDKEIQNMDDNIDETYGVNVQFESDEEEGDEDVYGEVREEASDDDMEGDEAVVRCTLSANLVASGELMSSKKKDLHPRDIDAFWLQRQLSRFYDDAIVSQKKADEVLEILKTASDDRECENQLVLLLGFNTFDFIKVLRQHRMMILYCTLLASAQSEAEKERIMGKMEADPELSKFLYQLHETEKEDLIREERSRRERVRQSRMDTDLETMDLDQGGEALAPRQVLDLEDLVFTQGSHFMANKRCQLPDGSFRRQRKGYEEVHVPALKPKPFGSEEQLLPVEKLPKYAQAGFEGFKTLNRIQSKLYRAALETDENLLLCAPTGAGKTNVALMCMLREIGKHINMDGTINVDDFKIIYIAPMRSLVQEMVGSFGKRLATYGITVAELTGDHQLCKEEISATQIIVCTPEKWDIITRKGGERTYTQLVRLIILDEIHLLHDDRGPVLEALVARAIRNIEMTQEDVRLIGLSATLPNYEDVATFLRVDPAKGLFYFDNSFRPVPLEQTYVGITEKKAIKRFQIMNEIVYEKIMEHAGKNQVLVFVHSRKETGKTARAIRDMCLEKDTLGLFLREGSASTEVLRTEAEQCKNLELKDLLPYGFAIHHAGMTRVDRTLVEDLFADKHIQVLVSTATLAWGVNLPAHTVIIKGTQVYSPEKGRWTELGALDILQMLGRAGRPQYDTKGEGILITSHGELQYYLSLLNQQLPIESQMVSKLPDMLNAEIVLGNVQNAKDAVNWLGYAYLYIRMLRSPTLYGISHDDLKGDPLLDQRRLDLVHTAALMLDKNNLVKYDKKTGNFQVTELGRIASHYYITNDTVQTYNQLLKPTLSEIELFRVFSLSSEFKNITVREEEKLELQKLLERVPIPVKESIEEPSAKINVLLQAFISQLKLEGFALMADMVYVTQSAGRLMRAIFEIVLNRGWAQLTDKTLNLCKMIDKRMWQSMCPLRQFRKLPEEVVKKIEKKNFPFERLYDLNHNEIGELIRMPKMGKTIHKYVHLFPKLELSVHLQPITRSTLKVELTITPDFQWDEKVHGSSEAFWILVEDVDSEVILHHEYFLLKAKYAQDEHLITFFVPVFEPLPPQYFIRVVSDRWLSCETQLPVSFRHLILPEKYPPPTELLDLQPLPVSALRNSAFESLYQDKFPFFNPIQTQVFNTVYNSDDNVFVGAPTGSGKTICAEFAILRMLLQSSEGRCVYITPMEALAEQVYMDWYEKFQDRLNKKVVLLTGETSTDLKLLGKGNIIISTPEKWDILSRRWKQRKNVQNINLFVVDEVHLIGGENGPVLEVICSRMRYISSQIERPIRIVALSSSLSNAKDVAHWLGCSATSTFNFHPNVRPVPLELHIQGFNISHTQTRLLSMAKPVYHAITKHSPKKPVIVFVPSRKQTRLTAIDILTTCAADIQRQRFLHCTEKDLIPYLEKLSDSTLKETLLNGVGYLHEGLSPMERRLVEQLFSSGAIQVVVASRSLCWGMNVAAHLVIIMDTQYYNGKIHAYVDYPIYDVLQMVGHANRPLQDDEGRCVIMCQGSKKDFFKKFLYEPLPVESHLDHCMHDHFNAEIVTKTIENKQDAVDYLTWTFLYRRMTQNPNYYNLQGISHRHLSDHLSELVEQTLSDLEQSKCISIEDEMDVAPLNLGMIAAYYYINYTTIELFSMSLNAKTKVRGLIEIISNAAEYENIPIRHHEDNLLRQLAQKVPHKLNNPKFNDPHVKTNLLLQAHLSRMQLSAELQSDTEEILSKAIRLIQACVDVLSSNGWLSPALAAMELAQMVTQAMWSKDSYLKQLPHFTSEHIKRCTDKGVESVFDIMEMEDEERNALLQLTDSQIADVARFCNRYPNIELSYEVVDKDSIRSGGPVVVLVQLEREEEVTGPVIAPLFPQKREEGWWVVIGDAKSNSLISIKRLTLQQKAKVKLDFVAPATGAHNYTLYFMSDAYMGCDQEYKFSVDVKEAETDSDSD

[4] = target: T2, ATP-dependent RNA helicase DHX29 (Homo sapiens, UniProt Q7Z478); test: Inhibition of full length recombinant human N-terminal FLAG-His-tagged DHX29 RNA dependent ATPase activity expressed in baculovirus infected Sf9 insect cells using single stranded poly(U) RNA as substrate after 30 mins by ADP-Glo luminescence assay
T2 sequence (Q7Z478 whole entry): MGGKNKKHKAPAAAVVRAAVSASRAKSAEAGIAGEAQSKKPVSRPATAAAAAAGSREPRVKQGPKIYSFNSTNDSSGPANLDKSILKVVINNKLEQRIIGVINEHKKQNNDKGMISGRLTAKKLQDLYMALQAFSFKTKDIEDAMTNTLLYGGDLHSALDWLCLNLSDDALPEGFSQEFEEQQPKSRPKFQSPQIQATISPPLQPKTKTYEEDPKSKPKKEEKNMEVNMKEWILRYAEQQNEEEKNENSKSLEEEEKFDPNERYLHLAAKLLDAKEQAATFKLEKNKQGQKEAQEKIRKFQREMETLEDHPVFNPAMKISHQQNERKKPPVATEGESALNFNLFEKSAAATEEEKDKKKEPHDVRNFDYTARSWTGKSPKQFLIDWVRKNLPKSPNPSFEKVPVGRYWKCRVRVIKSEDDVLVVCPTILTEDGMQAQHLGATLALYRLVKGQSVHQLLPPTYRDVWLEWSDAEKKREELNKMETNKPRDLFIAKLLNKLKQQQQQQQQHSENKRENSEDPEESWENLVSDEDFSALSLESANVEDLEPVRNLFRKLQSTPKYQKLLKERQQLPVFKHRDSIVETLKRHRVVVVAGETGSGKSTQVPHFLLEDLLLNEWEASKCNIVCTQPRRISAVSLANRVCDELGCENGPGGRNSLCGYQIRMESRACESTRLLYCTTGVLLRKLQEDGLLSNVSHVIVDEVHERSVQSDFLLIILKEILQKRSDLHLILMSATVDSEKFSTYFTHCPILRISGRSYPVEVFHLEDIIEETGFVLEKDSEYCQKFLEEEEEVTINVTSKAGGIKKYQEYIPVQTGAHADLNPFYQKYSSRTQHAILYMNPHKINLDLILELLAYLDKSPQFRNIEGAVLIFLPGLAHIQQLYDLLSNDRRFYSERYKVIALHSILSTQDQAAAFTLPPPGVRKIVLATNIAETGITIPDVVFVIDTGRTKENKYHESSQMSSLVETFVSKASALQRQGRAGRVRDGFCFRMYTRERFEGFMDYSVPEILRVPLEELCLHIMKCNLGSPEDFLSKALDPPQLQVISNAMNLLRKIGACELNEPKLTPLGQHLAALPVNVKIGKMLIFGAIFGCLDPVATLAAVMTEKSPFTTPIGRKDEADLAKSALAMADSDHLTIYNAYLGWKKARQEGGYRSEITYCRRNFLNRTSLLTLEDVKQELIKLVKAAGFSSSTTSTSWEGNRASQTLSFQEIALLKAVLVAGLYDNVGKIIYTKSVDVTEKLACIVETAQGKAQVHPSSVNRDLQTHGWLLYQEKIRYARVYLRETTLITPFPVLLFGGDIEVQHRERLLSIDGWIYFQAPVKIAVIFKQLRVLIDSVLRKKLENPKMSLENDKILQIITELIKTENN

[5] = target: Eukaryotic initiation factor 4A-II (Homo sapiens, UniProt Q14240); test: Inhibition of eIF4G-induced eIF4A2 (unknown origin) RNA dependent ATPase activity expressed in Escherichia coli BL21(DE3) using single stranded poly(U) RNA as substrate after 40 mins by ADP-Glo luminescence assay
Chain of Eukaryotic initiation factor 4A-II (Q14240 whole entry): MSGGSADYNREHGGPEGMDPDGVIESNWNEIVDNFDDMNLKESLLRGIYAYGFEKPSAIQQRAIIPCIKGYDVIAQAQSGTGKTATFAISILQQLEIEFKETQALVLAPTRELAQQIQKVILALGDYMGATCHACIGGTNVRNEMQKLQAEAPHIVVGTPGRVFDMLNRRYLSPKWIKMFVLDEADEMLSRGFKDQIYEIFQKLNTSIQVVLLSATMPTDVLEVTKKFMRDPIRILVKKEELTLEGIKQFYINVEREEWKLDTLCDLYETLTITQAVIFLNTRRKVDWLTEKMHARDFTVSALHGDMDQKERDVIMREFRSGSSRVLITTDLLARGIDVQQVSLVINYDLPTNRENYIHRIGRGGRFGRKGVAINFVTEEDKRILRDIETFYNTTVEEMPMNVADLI

[6] = target: T1, Eukaryotic initiation factor 4A-III; test: Binding affinity to full length recombinant human N-terminal His6/SUMO-tagged eIF4A3 expressed in Escherichia coli BL21(DE3) administered for 60 to 120 secs by surface plasmon resonance biosensing assay
[7] = target: T1, Eukaryotic initiation factor 4A-III
Description: Binding affinity to full length recombinant human N-terminal His6/SUMO-tagged eIF4A3 expressed in Escherichia coli BL21(DE3) assessed as dissociation half-life administered for 60 to 120 secs by surface plasmon resonance biosensing assay

[8] = target: T1, Eukaryotic initiation factor 4A-III; test: Inhibition of MLN51-induced full length recombinant human N-terminal His6/SUMO-tagged eIF4A3 expressed in Escherichia coli BL21(DE3) using 1.5 ug/ml single stranded poly(U) RNA after 45 mins by ADP-Glo luminescence assay
[9] = target: T1, Eukaryotic initiation factor 4A-III; remark: listed apart in the source
Description: Binding affinity to full length recombinant human N-terminal His6/SUMO-tagged eIF4A3 expressed in Escherichia coli BL21(DE3) assessed as change in Gibbs free energy by isothermal titration calorimetric method

[10] = target: T1, Eukaryotic initiation factor 4A-III; remark: listed apart in the source
Description: Binding affinity to full length recombinant human N-terminal His6/SUMO-tagged eIF4A3 expressed in Escherichia coli BL21(DE3) assessed as change in enthalpy by isothermal titration calorimetric method

[11] = target: T1, Eukaryotic initiation factor 4A-III; test: Binding affinity to full length recombinant human N-terminal His6/SUMO-tagged eIF4A3 expressed in Escherichia coli BL21(DE3) by isothermal titration calorimetric method
[12] = target: T1, Eukaryotic initiation factor 4A-III; test: ATP competitive inhibition of MLN51-induced full length recombinant human N-terminal His6/SUMO-tagged eIF4A3 expressed in Escherichia coli BL21(DE3) using varying ATP levels after 30 mins by ADP-Glo luminescence assay
[13] = target: T1, Eukaryotic initiation factor 4A-III; remark: listed apart in the source
Description: Binding affinity to full length recombinant human N-terminal His6/SUMO-tagged eIF4A3 expressed in Escherichia coli BL21(DE3) assessed as change in entropy by isothermal titration calorimetric method

CC(C)c1cc2[nH]c(C(=O)O)cc2cc1F
pIC50 [1]: 4.52

CCc1ccc2cc(C(=O)O)[nH]c2c1
pIC50 [1]: < 4.00

CC(C)c1ccc2cc(C(N)=O)[nH]c2c1
pIC50 [1]: < 4.00

CC(C)c1cc(Cl)c2cc(C(=O)O)[nH]c2c1
pIC50 [2]: < 4.00 | pIC50 [1]: 5.72

CC(C)c1ccc2[nH]c(C(=O)O)cc2c1
pIC50 [1]: < 4.00

CC(C)c1ccc2c(F)c(C(=O)O)[nH]c2c1
pIC50 [1]: 4.70

O=C(O)c1cc2ccc(Cl)cc2[nH]1
pIC50 [1]: < 4.00

CC(C)c1ccc2cc(C(=O)O)n(C)c2c1
pIC50 [1]: < 4.00

C[C@H]1C[C@@]2(O[C@H]3C[C@H]4[C@@H]5CC[C@H]6C[C@H](O)CC[C@]6(C)[C@H]5[C@@H](O)C[C@]4(C)[C@H]3[C@@]2(C)O)OC1(C)C [HIPPURISTANOL]
pIC50 [2]: 5.51 | pIC50 [3]: < 4.52 | pIC50 [4]: < 4.52 | pIC50 [5]: 4.74 | pIC50 [1]: 4.40 | pKd [6]: 4.30 | T1/2 [7]: 12.2 s

CC(C)c1cccc2cc(C(=O)O)[nH]c12
pIC50 [1]: < 4.00

Cc1ccc2cc(C(=O)O)[nH]c2c1
pIC50 [1]: < 4.00

CC(C)c1ccc2cc(C(=O)O)[nH]c2c1F
pIC50 [2]: < 4.00 | pIC50 [1]: 5.16

CC(C)c1cc(F)c2cc(C(=O)O)[nH]c2c1
pIC50 [1]: 5.30

CC(C)c1ccc2cc(C(=O)O)[nH]c2c1Cl
pIC50 [1]: < 4.00

COC(=O)c1cc2ccc(C(C)C)cc2[nH]1
pIC50 [1]: < 4.00

CC(C)c1ccc2cc(C(=O)O)[nH]c2c1
pIC50 [1]: 4.57 | pKd [6]: 5.27

CC(C)c1ccc2cc(-c3nnn[nH]3)[nH]c2c1
pIC50 [1]: 4.52

CC(C)c1cc(Cl)c2cc(C(=O)O)[nH]c2c1F
pIC50 [2]: < 4.00 | pIC50 [3]: < 4.00 | pIC50 [4]: < 4.00 | pIC50 [5]: < 4.00 | pIC50 [1]: 6.01 | pIC50 [8]: 6.44 | pKd [6]: 6.70 | deltaG [9]: -9.9 kcal/mol | deltaH [10]: -26 kcal/mol | pKd [11]: 7.21 | pKi [12]: 6.37 | T1/2 [7]: 8.9 s | -TdeltaS [13]: 16.1 kcal/mol
